Source: article PMC8658026, “The N-Acetylglucosamine Kinase from Yarrowia lipolytica Is a Moonlighting Protein” (International Journal of Molecular Sciences, 2021)

Key:
YlNag5 (NAGA kinase) [1] = target: T1, YlNag5 (NAGA kinase) (Yarrowia lipolytica, UniProt Q6C584, D214V); assay: residual NAGA assay after incubation with extract; assay type: biochemical
T1 construct: gene YALI0_E20207g

YlNag5 (NAGA kinase) [2] = target: T2, YlNag5 (NAGA kinase) (Yarrowia lipolytica, UniProt Q6C584, F320S); assay: residual NAGA assay after incubation with extract; assay type: biochemical
T2 construct: gene YALI0_E20207g
T2 sequence (Q6C584 entry or part of it F320S): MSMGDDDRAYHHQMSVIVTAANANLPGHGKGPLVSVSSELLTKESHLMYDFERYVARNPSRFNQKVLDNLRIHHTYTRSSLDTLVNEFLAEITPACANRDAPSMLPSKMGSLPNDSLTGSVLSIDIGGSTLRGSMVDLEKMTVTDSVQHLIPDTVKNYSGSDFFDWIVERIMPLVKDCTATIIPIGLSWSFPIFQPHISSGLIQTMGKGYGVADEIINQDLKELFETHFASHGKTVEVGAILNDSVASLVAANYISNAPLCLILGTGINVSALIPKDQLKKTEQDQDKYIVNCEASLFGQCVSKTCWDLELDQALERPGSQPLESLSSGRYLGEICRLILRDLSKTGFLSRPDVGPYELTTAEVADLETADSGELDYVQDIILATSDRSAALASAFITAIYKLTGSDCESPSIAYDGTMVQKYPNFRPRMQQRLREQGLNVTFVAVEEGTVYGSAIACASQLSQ

T1 sequence (Q6C584 entry or part of it D214V): as the sequence (Q6C584 entry or part of it F320S) above, with D214V, S320F counted along it

Structure (SMILES): CC(=O)N[C@H]1C(O)O[C@H](CO)[C@@H](O)[C@@H]1O (some centres unmarked) [NAGA]
- residual NAGA assay after incubation with extract (YlNag5 (NAGA kinase) [1]): strains expressing the F320S or D214V variants of YlNag5 exhibited low or moderate kinase activity
- residual NAGA assay after incubation with extract (YlNag5 (NAGA kinase) [2]): strains expressing the F320S or D214V variants of YlNag5 exhibited low or moderate kinase activity
